One test deals with KB. Kind of test: Cytotoxicity against human KB cells. The format is functional. The following applies: for EC50: Homo sapiens, KB, read-out: ED50 (the source's name).
Test [1] relates to P388. The test can be described thus: In vivo antitumor activity against mouse P388 cells at 2.2 mg/kg relative to control. The format is functional.
The subject of test [2] is P388. Kind of test: In vivo antitumor activity against mouse P388 cells at 16 mg/kg relative to control. The class given is functional.
The test system of test [3] is P388. The test can be described thus: In vivo antitumor activity against mouse P388 cells at 0.26 to 4.3 mg/kg. The format is functional, organism-based.

Values after ≈ are worked out from the molar mass of the structure shown. Active and inactive are the calls of the source. The rule behind the calls is not given here.

For the compound `C/C=C(\C)C(=O)N[C@@H](c1ccccc1)[C@@H](O)C(=O)O[C@H]1C[C@@]2(O)[C@@H](OC(=O)c3ccccc3)[C@@H]3[C@]4(OC(C)=O)CO[C@@H]4C[C@H](O)[C@@]3(C)C(=O)[C@H](OC(C)=O)C(=C1C)C2(C)C` [CEPHALOMANNINE], the EC50 with KB came out at 0.0038 µg/mL (≈ 0.00457 µM). The T/C (commonly the ratio of treated to control) with P388 [1] came out at 162%. Consider `C/C=C(\C)C(=O)N[C@@H](c1ccccc1)[C@@H](O)C(=O)O[C@H]1C[C@@]2(O)[C@@H](OC(=O)c3ccccc3)[C@@H]3[C@]4(OC(C)=O)CO[C@@H]4C[C@@H](O)[C@@]3(C)C(=O)[C@H](O)C(=C1C)C2(C)C`, for which the EC50 in the test with KB turned out to be 0.046 µg/mL (≈ 0.0582 µM).

In the test with P388 [2], `C/C=C(\C)C(=O)N[C@@H](c1ccccc1)[C@@H](O)C(=O)O[C@H]1C[C@@]2(O)[C@@H](OC(=O)c3ccccc3)[C@@H]3[C@]4(OC(C)=O)CO[C@@H]4C[C@H](O)[C@@]3(C)C(=O)[C@H](O)C(=C1C)C2(C)C` yielded a T/C of 130%. For the same compound, in the test with KB, the EC50 was determined as 0.031 µg/mL (≈ 0.0392 µM). Turning to `CC(=O)O[C@H]1C(=O)[C@@]2(C)[C@H]([C@H](OC(=O)c3ccccc3)[C@]3(O)C[C@H](OC(=O)[C@H](O)[C@@H](NC(=O)c4ccccc4)c4ccccc4)C(C)=C1C3(C)C)[C@]1(OC(C)=O)CO[C@@H]1C[C@@H]2O` [PACLITAXEL], the EC50 in the test on KB amounted to 0.0012 µg/mL (≈ 0.00141 µM). Further, in the test with P388 [1], the T/C was 152%.

In the test with KB, `CC(=O)O[C@H]1C(=O)[C@@]2(CO)[C@H]([C@H](OC(=O)c3ccccc3)[C@]3(O)C[C@H](O)C(C)=C1C3(C)C)[C@]1(OC(C)=O)CO[C@@H]1C[C@@H]2O` yielded an Activity of 2.2 µg/mL. Further, the outcome in the test with P388 [3] was inactive. In turn, `CC(=O)O[C@@]12CO[C@@H]1C[C@H](O)[C@@]1(C)C(=O)[C@H](O)C3=C(C)[C@@H](OC(=O)[C@H](O)[C@@H](NC(=O)c4ccccc4)c4ccccc4)C[C@@](O)([C@@H](OC(=O)c4ccccc4)[C@H]21)C3(C)C` showed a T/C in the test on P388 [2] of 135%. Further, the EC50 in the test with KB was 0.027 µg/mL (≈ 0.0333 µM).

For `CC(=O)O[C@@]12CO[C@@H]1C[C@@H](O)[C@@]1(C)C(=O)[C@H](O)C3=C(C)[C@@H](OC(=O)[C@H](O)[C@@H](NC(=O)c4ccccc4)c4ccccc4)C[C@@](O)([C@@H](OC(=O)c4ccccc4)[C@H]21)C3(C)C`, the EC50 in the test with KB was 0.034 µg/mL (≈ 0.0419 µM).
